Measured values as given in patent US9586949B2, “Aza-heteroaryl compounds as PI3K-gamma inhibitors” (Incyte Corporation, priority 2015, dated 2017).
Structures can show the parent of a compound that is named as a salt.

Tests used:
[1] = target: PI3Kγ (p110γ) Recombinant Human Protein (Homo sapiens (Human), UniProt P48736); test: PI3K-γ Scintillation Proximity Assay; type: biochemical; settings: 20 μM PIP2, 2 μM ATP, 13 nM PI3Kγ, 120 min; read-out: PI3K-gamma SPA IC50
Description: [γ-^33P]ATP (10 mCi/mL) and Wheat Germ Agglutinin (WGA) YSi SPA Scintillation Beads was purchased from Perkin-Elmer (Waltham, Mass.). […] PI3Kγ (p110γ) Recombinant Human Protein was purchased from Life technology (Grand Island, N.Y.). ATP, MgCl2, DTT, EDTA, MOPS and CHAPS were purchased from Sigma-Aldrich (St. Louis, Mo.).
The kinase reaction was conducted in polystyrene 384-well Greiner Bio-one white plate from Thermo Fisher Scientific in a final volume of 25 μL. Inhibitors were first diluted serially in DMSO and added to the plate wells before the addition of other reaction components. The final concentration of DMSO in the assay was 2%. The PI3Kγ assay was carried out at room temperature in 20 mM MOPS, pH 6.7, 10 mM MgCl2, 5 mM DTT and CHAPS 0.03%. Reactions were initiated by the addition of ATP, the final reaction mixture consisted of 20 μM PIP2, 2 μM ATP, 0.5 μCi [γ-^33P] […] The final concentration of SPA beads is 1.0 mg/mL. After the plate sealing, plates were shaken overnight at room temperature and centrifuged at 1500 rpm for 10 min, the radioactivity of the product was determined by scintillation counting on Topcount (Perkin-Elmer). IC50 determination was performed by fitting the curve of percent of the solvent control activity versus the log of the inhibitor concentration using the GraphPad Prism 6.0 software.

[2] = target: PI3Kδ (p110δ/p85α) Recombinant Human Protein (Homo sapiens (Human), UniProt O00329); test: PI3Kδ Scintillation Proximity Assay; type: biochemical; settings: 20 μM PIP2, 2 μM ATP, 3.4 nM PI3Kδ, 120 min; read-out: PI3K-delta SPA IC50
Text: [γ-^33P]ATP (10 mCi/mL) and Wheat Germ Agglutinin (WGA) YSi SPA Scintillation Beads was purchased from Perkin-Elmer (Waltham, Mass.). Lipid kinase substrate, D-myo-Phosphatidylinositol 4,5-bisphosphate (PtdIns(4,5)P2)D (+)-sn-1,2-di-O-octanoylglyceryl, 3-O-phospho linked (PIP2), CAS 204858-53-7, was purchased from Echelon Biosciences (Salt Lake City, Utah). PI3Kδ (p110δ/p85α) Recombinant Human Protein was purchased from Eurofins (St Charles, Mo.). ATP, MgCl2, DTT, EDTA, MOPS and CHAPS were purchased from Sigma-Aldrich (St. Louis, Mo.).
The kinase reaction was conducted in polystyrene 384-well Greiner Bio-one white plate from Thermo Fisher Scientific in a final volume of 25 μL. Inhibitors were first diluted serially in DMSO and added to the plate wells before the addition of other reaction components. The final concentration of DMSO in the assay was 2%. The PI3Kδ assay was carried out at room temperature in 20 mM MOPS, pH 6.7, 10 mM MgCl2, 5 mM DTT and CHAPS 0.03%. Reactions were initiated by the addition of ATP, the final reaction mixture consisted of 20 μM PIP2, 2 μM ATP, 0.5 μCi [γ-^33P] ATP, 3.4 nM PI3Kδ. Reactions were incubated for 120 min and terminated by the addition of 40 μL SPA beads suspended in quench buffer: 163 mM potassium phosphate pH 7.8, 20% glycerol, 25 mM EDTA. The final concentration of SPA beads is 1.0 mg/mL. After the plate sealing, plates were shaken overnight at room temperature and centrifuged at 1500 rpm for 10 min, the radioactivity of the product was determined by scintillation counting on Topcount (Perkin-Elmer). IC50 determination was performed by fitting the curve of percent of the solvent control activity versus the log of the inhibitor concentration using the GraphPad Prism 6.0 software.

PI3Kδ (p110δ/p85α) Recombinant Human Protein, sequence (O00329 whole entry): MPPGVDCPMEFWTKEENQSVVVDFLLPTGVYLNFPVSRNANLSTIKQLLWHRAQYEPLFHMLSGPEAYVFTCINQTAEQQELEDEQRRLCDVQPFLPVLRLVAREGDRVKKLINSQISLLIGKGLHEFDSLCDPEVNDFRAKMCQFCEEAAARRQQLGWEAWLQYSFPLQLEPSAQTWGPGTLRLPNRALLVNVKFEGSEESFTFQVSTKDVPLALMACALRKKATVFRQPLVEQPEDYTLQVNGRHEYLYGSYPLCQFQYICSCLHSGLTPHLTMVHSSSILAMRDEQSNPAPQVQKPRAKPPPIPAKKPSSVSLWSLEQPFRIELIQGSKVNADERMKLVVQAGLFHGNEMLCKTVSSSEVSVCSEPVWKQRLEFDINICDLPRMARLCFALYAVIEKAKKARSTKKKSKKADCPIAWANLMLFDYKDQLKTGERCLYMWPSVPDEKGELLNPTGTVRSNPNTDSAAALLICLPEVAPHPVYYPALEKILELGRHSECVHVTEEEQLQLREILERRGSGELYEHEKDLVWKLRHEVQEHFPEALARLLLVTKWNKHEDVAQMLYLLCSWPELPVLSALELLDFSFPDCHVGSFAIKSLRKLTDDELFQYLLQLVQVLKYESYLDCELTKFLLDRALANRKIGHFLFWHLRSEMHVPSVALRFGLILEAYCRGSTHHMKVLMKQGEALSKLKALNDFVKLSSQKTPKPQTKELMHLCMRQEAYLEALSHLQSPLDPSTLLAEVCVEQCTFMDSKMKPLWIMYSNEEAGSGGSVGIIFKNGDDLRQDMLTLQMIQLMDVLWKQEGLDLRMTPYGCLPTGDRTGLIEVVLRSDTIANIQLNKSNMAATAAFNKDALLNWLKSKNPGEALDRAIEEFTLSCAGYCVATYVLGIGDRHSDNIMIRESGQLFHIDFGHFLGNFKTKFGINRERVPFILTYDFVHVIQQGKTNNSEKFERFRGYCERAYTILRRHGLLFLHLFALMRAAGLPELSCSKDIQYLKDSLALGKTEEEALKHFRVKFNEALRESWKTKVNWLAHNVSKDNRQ
PI3Kδ (p110δ/p85α) Recombinant Human Protein, sequence (P27986 whole entry partner): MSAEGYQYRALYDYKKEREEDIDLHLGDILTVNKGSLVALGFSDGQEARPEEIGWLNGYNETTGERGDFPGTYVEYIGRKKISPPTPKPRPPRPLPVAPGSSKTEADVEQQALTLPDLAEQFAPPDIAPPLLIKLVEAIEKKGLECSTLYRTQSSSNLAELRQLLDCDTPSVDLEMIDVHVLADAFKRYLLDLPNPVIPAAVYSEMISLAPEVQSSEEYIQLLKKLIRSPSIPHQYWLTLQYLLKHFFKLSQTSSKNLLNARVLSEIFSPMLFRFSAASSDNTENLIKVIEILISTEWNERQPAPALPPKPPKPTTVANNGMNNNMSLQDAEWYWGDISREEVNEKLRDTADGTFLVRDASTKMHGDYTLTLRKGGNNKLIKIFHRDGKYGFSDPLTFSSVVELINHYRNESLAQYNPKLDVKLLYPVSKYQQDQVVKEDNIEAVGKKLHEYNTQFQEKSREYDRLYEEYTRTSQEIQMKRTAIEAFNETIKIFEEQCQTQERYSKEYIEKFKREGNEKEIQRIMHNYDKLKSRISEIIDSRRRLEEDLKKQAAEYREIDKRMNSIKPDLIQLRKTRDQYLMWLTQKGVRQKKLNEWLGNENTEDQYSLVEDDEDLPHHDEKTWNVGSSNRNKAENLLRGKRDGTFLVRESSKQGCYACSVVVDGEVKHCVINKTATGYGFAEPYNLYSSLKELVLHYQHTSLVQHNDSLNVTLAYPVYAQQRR
PI3Kγ (p110γ) Recombinant Human Protein, sequence (P48736 whole entry): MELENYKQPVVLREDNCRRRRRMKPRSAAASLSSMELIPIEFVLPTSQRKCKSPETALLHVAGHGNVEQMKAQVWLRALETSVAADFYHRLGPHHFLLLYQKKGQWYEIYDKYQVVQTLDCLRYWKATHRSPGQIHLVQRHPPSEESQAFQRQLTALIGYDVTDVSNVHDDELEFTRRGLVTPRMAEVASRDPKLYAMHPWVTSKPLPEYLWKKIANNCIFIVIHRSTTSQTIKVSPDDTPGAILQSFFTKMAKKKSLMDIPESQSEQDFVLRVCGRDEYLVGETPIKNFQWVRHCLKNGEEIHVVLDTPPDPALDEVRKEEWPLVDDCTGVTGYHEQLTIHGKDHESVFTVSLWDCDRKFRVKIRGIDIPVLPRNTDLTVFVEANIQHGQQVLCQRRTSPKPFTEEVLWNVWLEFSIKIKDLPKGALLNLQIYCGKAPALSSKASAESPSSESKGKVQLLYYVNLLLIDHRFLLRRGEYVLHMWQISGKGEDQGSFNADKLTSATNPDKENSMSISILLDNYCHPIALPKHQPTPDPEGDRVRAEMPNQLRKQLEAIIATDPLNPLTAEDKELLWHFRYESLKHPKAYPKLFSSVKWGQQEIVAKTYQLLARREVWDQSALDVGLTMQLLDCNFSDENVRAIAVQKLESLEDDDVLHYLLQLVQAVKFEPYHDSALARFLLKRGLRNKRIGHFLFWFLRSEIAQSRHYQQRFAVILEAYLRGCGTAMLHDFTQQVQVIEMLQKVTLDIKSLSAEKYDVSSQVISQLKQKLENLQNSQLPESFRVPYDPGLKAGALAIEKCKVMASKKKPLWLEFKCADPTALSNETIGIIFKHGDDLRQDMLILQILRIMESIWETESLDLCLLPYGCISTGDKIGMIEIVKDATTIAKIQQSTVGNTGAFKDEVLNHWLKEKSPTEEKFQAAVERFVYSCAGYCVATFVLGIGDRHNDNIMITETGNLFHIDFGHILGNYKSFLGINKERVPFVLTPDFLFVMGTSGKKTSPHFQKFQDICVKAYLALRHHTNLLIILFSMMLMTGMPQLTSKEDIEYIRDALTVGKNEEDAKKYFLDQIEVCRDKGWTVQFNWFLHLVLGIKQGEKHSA

SMILES | IC50 [1] | IC50 [2]
COc1cncc(-c2ccc3nc(-c4ncc[nH]4)oc3c2)c1 [Example 1, 2-(1H-Imidazol-2-yl)-6-(5-methoxypyridin-3-yl)benzo[d]oxazole trifluoroacetate] | < 1000 nM | < 5000 nM
COc1cncc(-c2ccc3nc(-c4cnc[nH]4)oc3c2)c1 [Example 2, 2-(1H-Imidazol-5-yl)-6-(5-methoxypyridin-3-yl)benzo[d]oxazole trifluoroacetate] | < 5000 nM | < 5000 nM
COc1cncc(-c2ccc3nc(-c4ccc[nH]4)oc3c2)c1 [Example 3, 6-(5-Methoxypyridin-3-yl)-2-(1H-pyrrol-2-yl)benzo[d]oxazole trifluoroacetate] | < 5000 nM | < 5000 nM
COc1cncc(-c2ccc3nc(-c4nc5ccccc5[nH]4)oc3c2)c1 [Example 4, 2-(1H-Benzo[d]imidazol-2-yl)-6-(5-methoxypyridin-3-yl)benzo[d]oxazole trifluoroacetate] | < 250 nM | < 5000 nM
COc1cncc(-c2ccc3nc(-c4cc5ccccc5[nH]4)oc3c2)c1 [Example 5, 2-(1H-Indol-2-yl)-6-(5-methoxypyridin-3-yl)benzo[d]oxazole trifluoroacetate] | < 250 nM | < 1000 nM
COc1cncc(-c2ccc3nc(-c4nc5ccccc5[nH]4)sc3c2)c1 [Example 6, 2-(1H-Benzo[d]imidazol-2-yl)-6-(5-methoxypyridin-3-yl)benzo[d]thiazole trifluoroacetate] | > 5000 nM | ≥ 5000 nM
COc1cncc(-c2ccc3nc(-c4nc5ccccc5[nH]4)ccc3c2)c1 [Example 7, 2-(1H-Benzo[d]imidazol-2-yl)-6-(5-methoxypyridin-3-yl)quinoline] | < 1000 nM | ≥ 5000 nM
COc1cncc(-c2ccc3nc(-c4nc5ccc(Br)cc5[nH]4)oc3c2)c1 [Example 8, 2-(6-Bromo-1H-benzo[d]imidazol-2-yl)-6-(5-methoxypyridin-3-yl)benzo[d]oxazole] | < 1000 nM | 
COc1cncc(-c2ccc3nc(-c4nc5cc(F)ccc5[nH]4)oc3c2)c1 [Example 10, 2-(5-Fluoro-1H-benzo[d]imidazol-2-yl)-6-(5-methoxypyridin-3-yl)benzo[d]oxazole] | < 1000 nM | ≥ 5000 nM
COc1cncc(-c2ccc3nc(-c4nc5cc(C)ccc5[nH]4)oc3c2)c1 [Example 11, 6-(5-Methoxypyridin-3-yl)-2-(5-methyl-1H-benzo[d]imidazol-2-yl)benzo[d]oxazole] | < 250 nM | < 5000 nM
COc1cncc(-c2ccc3nc(-c4nc5c(C)cccc5[nH]4)oc3c2)c1 [Example 12, 6-(5-Methoxypyridin-3-yl)-2-(4-methyl-1H-benzo[d]imidazol-2-yl)benzo[d]oxazole] | < 250 nM | ≥ 5000 nM
Brc1ccc2nc(-c3nc4ccccc4[nH]3)oc2c1 [Example 13, 2-(1H-Benzo[d]imidazol-2-yl)-6-bromobenzo[d]oxazole] | < 5000 nM | ≥ 5000 nM
Oc1cncc(-c2ccc3nc(-c4nc5ccccc5[nH]4)oc3c2)c1 [Example 14, 5-(2-(1H-Benzo[d]imidazol-2-yl)benzo[d]oxazol-6-yl)pyridin-3-ol] | < 250 nM | < 5000 nM
CC(C)Oc1cncc(-c2ccc3nc(-c4nc5ccccc5[nH]4)oc3c2)c1 [Example 15, 2-(1H-Benzo[d]imidazol-2-yl)-6-(5-isopropoxypyridin-3-yl)benzo[d]oxazole] | < 1000 nM | < 5000 nM
FC(F)Oc1cncc(-c2ccc3nc(-c4nc5ccccc5[nH]4)oc3c2)c1 [Example 16, 2-(1H-Benzo[d]imidazol-2-yl)-6-(5-(difluoromethoxy)pyridin-3-yl)benzo[d]oxazole] | < 250 nM | < 1000 nM
O=S(=O)(Nc1cncc(-c2ccc3nc(-c4nc5ccccc5[nH]4)oc3c2)c1)c1ccc(F)cc1 [Example 17, N-(5-(2-(1H-Benzo[d]imidazol-2-yl)benzo[d]oxazol-6-yl)pyridin-3-yl)-4-fluorobenzenesulfonamide] | < 250 nM | < 250 nM
O=S(=O)(Nc1cncc(-c2ccc3nc(-c4nc5ccccc5[nH]4)oc3c2)c1)c1cccc(F)c1 [Example 19, N-(5-(2-(1H-Benzo[d]imidazol-2-yl)benzo[d]oxazol-6-yl)pyridin-3-yl)-3-fluorobenzenesulfonamide] | < 250 nM | < 250 nM
O=S(=O)(Nc1cncc(-c2ccc3nc(-c4nc5ccccc5[nH]4)oc3c2)c1)N1CCCCC1 [Example 20, N-(5-(2-(1H-Benzo[d]imidazol-2-yl)benzo[d]oxazol-6-yl)pyridin-3-yl)piperidine-1-sulfonamide] | < 250 nM | < 1000 nM
CN(C)S(=O)(=O)Nc1cncc(-c2ccc3nc(-c4nc5ccccc5[nH]4)oc3c2)c1 [Example 21, N′-{5-[2-(1H-Benzimidazol-2-yl)-1,3-benzoxazol-6-yl]-pyridin-3-yl}-N,N-dimethylsulfamide] | < 250 nM | < 1000 nM
Cc1ncc(-c2ccc3nc(-c4nc5ccccc5[nH]4)oc3c2)cc1NS(=O)(=O)N(C)C [Example 22, N′-{5-[2-(1H-Benzimidazol-2-yl)-1,3-benzoxazol-6-yl]-2-methylpyridin-3-yl}-N,N-dimethylsulfamide] | < 250 nM | < 250 nM
CN(C)S(=O)(=O)Nc1cc(-c2ccc3nc(-c4nc5ccccc5[nH]4)oc3c2)cnc1F [Example 23, N′-{5-[2-(1H-Benzimidazol-2-yl)-1,3-benzoxazol-6-yl]-2-fluoropyridin-3-yl}-N,N-dimethylsulfamide] | < 250 nM | < 250 nM
CC(C)S(=O)(=O)Nc1cncc(-c2ccc3nc(-c4nc5ccccc5[nH]4)oc3c2)c1 [Example 24, N-(5-(2-(1H-Benzo[d]imidazol-2-yl)benzo[d]oxazol-6-yl)pyridin-3-yl)propane-2-sulfonamide] | < 250 nM | < 5000 nM
CCS(=O)(=O)Nc1cc(-c2ccc3nc(-c4nc5ccccc5[nH]4)oc3c2)cnc1C [Example 25, N-(5-(2-(1H-Benzo[d]imidazol-2-yl)benzo[d]oxazol-6-yl)-2-methylpyridin-3-yl)ethanesulfonamide] | < 250 nM | < 250 nM
CCS(=O)(=O)Nc1cc(-c2ccc3nc(-c4nc5ccccc5[nH]4)oc3c2)cnc1Cl [Example 26, N-(5-(2-(1H-Benzo[d]imidazol-2-yl)benzo[d]oxazol-6-yl)-2-chloropyridin-3-yl)ethanesulfonamide] | < 250 nM | ≥ 5000 nM
CCS(=O)(=O)Nc1cc(-c2ccc3nc(-c4nc5ccccc5[nH]4)oc3c2)cnc1F [Example 27, N-(5-(2-(1H-Benzo[d]imidazol-2-yl)benzo[d]oxazol-6-yl)-2-fluoropyridin-3-yl)ethanesulfonamide] | < 250 nM | < 1000 nM
Cc1ncc(-c2ccc3nc(-c4nc5ccccc5[nH]4)oc3c2)cc1NS(=O)(=O)c1ccc(F)cc1 [Example 28, N-(5-(2-(1H-Benzo[d]imidazol-2-yl)benzo[d]oxazol-6-yl)-2-methylpyridin-3-yl)-4-fluorobenzenesulfonamide] | < 250 nM | < 250 nM
O=S(=O)(Nc1cc(-c2ccc3nc(-c4nc5ccccc5[nH]4)oc3c2)cnc1Cl)c1ccc(F)cc1 [Example 29, N-(5-(2-(1H-Benzo[d]imidazol-2-yl)benzo[d]oxazol-6-yl)-2-chloropyridin-3-yl)-4-fluorobenzenesulfonamide] | < 250 nM | < 250 nM
O=S(=O)(Nc1cc(-c2ccc3nc(-c4nc5ccccc5[nH]4)oc3c2)cnc1F)c1ccc(F)cc1 [Example 30, N-(5-(2-(1H-Benzo[d]imidazol-2-yl)benzo[d]oxazol-6-yl)-2-fluoropyridin-3-yl)-4-fluorobenzenesulfonamide] | < 250 nM | < 250 nM
